Source: US6537978B1, “Oral administration of effective amounts of forms of hyaluronic acid” (Jagotec AG, priority 1996, dated 2003)

Assays:
rat carotid artery = assay: Stenosis after balloon angioplasty injury of the rat carotid artery, oral HA; assay type: in vivo; details: for N/I RATIO ± S.E.M. (NEOINTIMA /INTIMA RATIO WHERE N IS NEOINTIMA AND I IS INTIMA): rat carotid artery after balloon injury, mean of four animals
From the text: FIG. 6 consists of a series of photographs of the cross-sections through carotid arteries of rats showing the effects of different amounts of orally administered Hyaluronan in stenosis of the rat carotid arteries:
All vessels were injured with a fogherty balloon as described in the prior art (Forns et. al., 1994) Cross-sections of arteries of rats treated with HA, saline or left untreated are as shown:
These values represent the mean of, and standard error of the mean (S.E.M.) of, four animals. These experiments were repeated twice with similar results.
FIG. 7 illustrates the effects of oral administration of HA on Neointimal formation in rats after balloon angioplasty. Six groups of tests were conducted, each test in respect of 3 rats. Thus, the six test results shown in […] resulted from the use of 18 rats. […] This is consistent with the findings illustrated in FIGS. 6 and 8 and the discussion herein.

[1] = Rat serum hyaluronic acid levels and molecular weight after oral administration (gel filtration, carbazole and aggrecan ELISA-like assay); assay type: in vivo; details: for serum/blood HA amount after oral compared with subcutaneous administration: oral 30 mg/kg vs subcutaneous 30-100 mg/kg
Experimental: Elisa-Like Assay for Hyaluronic Acid in Column Fractions from Serum Obtained after the Oral Administration of Sodium Hyaluronate at 30 mg/kg (400.000)Daltons Mean Average Molecular Weight Distribution (Protein Standard), 2% by Weight in Sterile Water)
using 2 mL fraction volumes.
B.) Elisa-Like Assay for Hyaluronic Acid
Prior to assay the column fractions were prepared in the following manner:
1900 μ.L of each 2 mL fraction was frozen at—80° C. and then taken to dryness on a speed vac concentrator at room temperature.
fractions were reconstituted with 125 μ.L of ddH2O and then assayed.
The sharp drop in serum hyaluronic acid levels seen at 3 and 6 hours post-feeding appears to be a real event since it was reproduced in serum analyzed from two different animals for each time point. The overall trend appears to be satisfactory. It is indicative of an initial absorption of sodium hyaluronate in the stomach (1 hour post-feeding of HA) followed by a rapid clearance of this initial “pulse” from the blood. The second “pulse” of increased serum hyaluronic acid (9-12 hours post-feeding of HA) appears then to represent a second phase of absorption, as the administered sodium hyualuronate moves into the small and large intestine. The majority of serum hyaluronic acid at 1 hour and 9 hours post-feeding of HA (FIG. 3 (A), (D)) elutes in the region of V, indicating a molecular weight >71 kDa(Kilodaltons (high molecular weight species). Between 12-24 hours post-feeding (FIG. 3 (E), (G)), there appears to be an emergence of smaller molecular weight hyaluronic acid species in the molecular weight range between about 30 and about >80 kDa, and more particularly between 71-37.7 kDa (Kilo-daltons (peaks 1,2 and 3 in FIG. 1(G), representing 55.5, 47 and 38 kDa, respectively (Protein Standard). Two assays were used to measure HA in serum: (i) carbazole, and (ii) aggrecan assay.
F: Carbazole Assay for the Determination of Glucuronic Acid
For this assay, a linear response has been achieved with hyaluronic acid standards up to 200 μg./mL, (the range of linearity is expected to be extendible to even higher standard concentrations).
Place 3 mL of 0.025 M sodium tetraborate solution in glass tubes and cool thoroughly on ice prior to addition of samples and standards.
Carefully layer (so as to avoid mixing) 0.5 mL of sample or standard over the sodium tetraborate solution in the reaction tubes and place tubes back on ice until all tubes have been prepared.
Mix the contents of each tube thoroughly with a vortex mixer and return the tube to the ice, while mixing the others, to prevent excessive heating of sample.
Place reaction tubes in a 90° C. water bath for 10 minutes and then transfer to a tub of cool water for 5-10 minutes.
Add 100 μ.L of 0.125% carbazole solution to each tube and mix thoroughly with a vortex mixer.
Re-heat the reaction tubes in the 90° C. water bath for an additional 15 minutes. Transfer to a tub of cool water for 5-10 minutes.
Measure absorbance of samples and standards at 530 nm.
After completion of the reaction,transfter 200 μ.L of each sample and standard to individual wells of a 96 well microtest plate. Immediately measure the sample absorbance at 530 ηm (550 ηm, given the available filters with some instruments) using a microplate reader. Biotinylated Aggregcan, an HA binding protein, can be used to detect low levels of HA in serum by in ELISA assay that has been published and is known to persons skilled in the art. This assay is more sensitive than the carbazole assay and was used for conformation.

neutrophils = assay: MPO (myleoperoxidase) content, neutrophil accumulation at the site of restenosis, oral HA; assay type: in vivo, rat; details: FIG. 8
From the text: With respect to neutrophil accumulation, reference is to be had to FIG. 8—MPO Content (oral) where MPO is Myleoperoxidase and MPO has been assayed by the methods known to persons skilled in the art. This assay for detecting myleoperoxidase (which is an enzyme) is a good test and thus a good measure for detecting neutrophils.

[2] = Human serum hyaluronan levels and molecular weight after oral administration; assay type: in vivo; details: oral 30.0 mg/kg, m.w. less than 750,000 daltons (Protein Standard), FIG. 10
From the text: FIGS. 11A, 11B and 11C illustrate the release of amounts of hyaluronic acid into the blood stream of individuals (human) who have taken hyaluronan orally and the molecular weights of the serum hyaluronan released by the bodily processes. The molecular weights of the hyaluronan released into the human blood serum appear to include amounts at peaks between 400,000 daltons and 600,000 daltons such as less than 500,000 daltons, between about 200,000 and about 300,000 such as greater than 200,000 daltons, and between about 30,000 daltons and about 80,000 daltons (determined using the Dextran Standard).
FIG. 10 illustrates the mean serum hyaluronan concentration after giving individual humans oral dosages containing 30.0 mg/kg of hyaluronan (molecular weight less than 750,000 daltons determined by the Protein Standard).

[3] = oral 30 mg/kg, 12-24 hours post-feeding, Protein Standard

serum/blood HA amount after oral compared with subcutaneous administration [1]: similar
molecular weight of serum hyaluronic acid, peak 1 [1, 3]: 55.5 kDa
molecular weight of serum hyaluronic acid, peak 2 [1, 3]: 47 kDa
molecular weight of serum hyaluronic acid, peak 3 [1, 3]: 38 kDa
molecular weight of the majority of serum hyaluronic acid ([1]; oral 30 mg/kg, 1 hour and 9 hours post-feeding, Protein Standard): > 71 kDa
time after administration at which serum hyaluronan levels increase ([1]; oral 30 mg/kg, FIG. 4): about 1.25 hours
first increase of serum hyaluronic acid after oral administration ([1]; single oral dose 30 mg/kg, 2% in sterile water): increased within the first hour
time window of increased serum hyaluronan levels [2]: 4 to 12 h
Substance: sodium hyaluronate [HA]
N/I RATIO ± S.E.M. (NEOINTIMA /INTIMA RATIO WHERE N IS NEOINTIMA AND I IS INTIMA) (rat carotid artery; 1 mg/kg orally): 2.6 ± 0.8
N/I RATIO ± S.E.M. (NEOINTIMA /INTIMA RATIO WHERE N IS NEOINTIMA AND I IS INTIMA) (rat carotid artery; 3 mg/kg orally): 1.7 ± 0.4
N/I RATIO ± S.E.M. (NEOINTIMA /INTIMA RATIO WHERE N IS NEOINTIMA AND I IS INTIMA) (rat carotid artery; 10 mg/kg orally): 0.4 ± 0.03
N/I RATIO ± S.E.M. (NEOINTIMA /INTIMA RATIO WHERE N IS NEOINTIMA AND I IS INTIMA) (rat carotid artery; 30 mg/kg orally): 0.99 ± 0.06
N/I RATIO ± S.E.M. (NEOINTIMA /INTIMA RATIO WHERE N IS NEOINTIMA AND I IS INTIMA) (rat carotid artery; 100 mg/kg orally): 1.1 ± 0.08
neointimal to total wall ratio, order of the dose groups (rat carotid artery; oral HA, rats after balloon angioplasty, 3 rats per group, FIG. 7): greater for administration of saline, followed by the administration of HA in amounts per kilogram of body weight of 1 mg, then 100 mg, 10 mg and 3 mg
oral dose with optimal effects on smooth muscle cell proliferation (rat carotid artery; oral administration, rat, FIG. 6): 3 to 10 mg/kg
serum/blood HA amount after oral compared with subcutaneous administration ([1]; listed as sodium hyaluronate): on the order of that seen for the subcutaneous administration of this compound at 30-100 mg/kg
time course of HA in blood after oral administration ([1]; oral 30 mg/kg, FIG. 3): burst of HA in blood one hour after administration, a decrease for five hours followed by a steady increase over the next eighteen hours
serum hyaluronic acid after the first pulse ([1]; single oral dose 30 mg/kg, 3 and 6 hours post-feeding): sharp decrease to background levels in normal serum at 3 and 6 hours post-feeding
second increase of serum hyaluronic acid ([1]; single oral dose 30 mg/kg, from 9 hours post-feeding): increase at 9 hours post-feeding of HA and this increase is sustained over the time period extending up to 24 hours
neutrophil number (MPO content) at the site of restenosis (neutrophils): reduces the number of neutrophils
